pIC50: −log10 of the molar value.
target: T1, IGFR kinase (Homo sapiens, UniProt P08069); assay: Enzyme assay (c), IGFR kinase, Caliper LabChip; format: biochemical; details: not given
T1 construct: purchased Millipore
T1 sequence (P08069 31-1367): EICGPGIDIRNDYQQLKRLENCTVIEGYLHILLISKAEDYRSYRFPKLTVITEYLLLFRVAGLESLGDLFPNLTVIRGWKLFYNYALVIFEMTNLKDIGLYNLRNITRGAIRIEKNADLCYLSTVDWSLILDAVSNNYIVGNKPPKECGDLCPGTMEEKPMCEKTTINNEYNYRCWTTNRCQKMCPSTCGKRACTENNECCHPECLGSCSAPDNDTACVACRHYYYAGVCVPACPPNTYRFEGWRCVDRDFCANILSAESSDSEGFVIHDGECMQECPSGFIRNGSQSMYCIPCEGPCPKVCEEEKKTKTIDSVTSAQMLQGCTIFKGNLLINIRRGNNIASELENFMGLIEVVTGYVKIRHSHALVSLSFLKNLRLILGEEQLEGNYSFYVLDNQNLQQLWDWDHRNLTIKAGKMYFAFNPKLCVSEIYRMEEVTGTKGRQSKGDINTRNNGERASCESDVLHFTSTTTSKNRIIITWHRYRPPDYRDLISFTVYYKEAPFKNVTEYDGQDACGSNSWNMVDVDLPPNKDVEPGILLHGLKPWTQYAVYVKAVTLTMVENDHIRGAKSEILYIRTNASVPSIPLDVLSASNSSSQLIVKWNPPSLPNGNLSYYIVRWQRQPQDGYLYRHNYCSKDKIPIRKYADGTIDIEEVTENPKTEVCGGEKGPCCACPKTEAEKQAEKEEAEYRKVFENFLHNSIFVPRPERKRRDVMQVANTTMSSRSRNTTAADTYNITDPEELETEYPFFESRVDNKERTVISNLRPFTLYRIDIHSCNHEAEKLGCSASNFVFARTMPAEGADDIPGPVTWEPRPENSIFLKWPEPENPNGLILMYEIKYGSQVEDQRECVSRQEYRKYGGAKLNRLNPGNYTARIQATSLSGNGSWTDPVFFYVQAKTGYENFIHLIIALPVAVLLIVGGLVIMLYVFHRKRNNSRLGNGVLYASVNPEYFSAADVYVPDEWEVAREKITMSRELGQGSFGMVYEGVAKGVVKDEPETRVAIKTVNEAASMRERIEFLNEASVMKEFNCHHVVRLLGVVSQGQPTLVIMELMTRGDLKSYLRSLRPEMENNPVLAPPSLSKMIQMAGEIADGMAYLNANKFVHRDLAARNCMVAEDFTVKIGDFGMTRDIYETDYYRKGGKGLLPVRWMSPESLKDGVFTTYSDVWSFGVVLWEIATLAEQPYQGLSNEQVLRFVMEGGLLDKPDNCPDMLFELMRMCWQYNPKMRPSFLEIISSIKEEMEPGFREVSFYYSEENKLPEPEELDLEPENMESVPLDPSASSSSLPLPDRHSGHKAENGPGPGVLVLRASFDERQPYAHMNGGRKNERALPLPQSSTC

Row | pIC50 | SMILES
1 | 7.72 | COc1cc(N2CC3CN(CCCO)CC(C2)O3)ccc1Nc1ncc(Cl)c(-c2cnc3c(F)cccn23)n1 [Example 204, 3-[7-[4-[[5-chloro-4-(8-fluoroimidazo[1,2-a]pyridin-3-yl)pyrimidin-2-yl]amino]-3-methoxy-phenyl]-9-oxa-3,7-diazabicyclo[3.3.1]nonan-3-yl]propan-1-ol]

same assay, conditions: 30 nM IGFR kinase, 6 uM ATP, 3 uM peptide mix; read-out: IGFR IC50

Row | SMILES | pIC50
2 | COc1cc(C2CCNCC2)ccc1Nc1ncc(C)c(-c2cnc3c(F)cccn23)n1 [Example 197, 4-(8-fluoroimidazo[1,2-a]pyridin-3-yl)-N-[2-methoxy-4-(4-piperidyl)phenyl]-5-methyl-pyrimidin-2-amine] | 7.89
3 | COc1cc(N2CCN(C(=O)[C@@H](N)C(C)C)CC2)ccc1Nc1ncc(Cl)c(-c2cnc3ccccn23)n1 [Example 24.6, (2S)-2-amino-1-[4-[4-[(5-chloro-4-imidazo[1,2-a]pyridin-3-yl-pyrimidin-2-yl)amino]-3-methoxy-phenyl]piperazin-1-yl]-3-methyl-butan-1-one] | 8.22
4 | COc1cc(CC(=O)N2CC[C@H](O)C2)ccc1Nc1ncc(Cl)c(-c2cnc3ccccn23)n1 [Example 38, 2-[4-[(5-chloro-4-imidazo[1,2-a]pyridin-3-yl-pyrimidin-2-yl)amino]-3-methoxy-phenyl]-1-[(3S)-3-hydroxypyrrolidin-1-yl]ethanone] | 7.36
5 | CNC(=O)C1CCN(c2ccc(Nc3ncc(Cl)c(-c4cnc5c(F)cccn45)n3)c(OC)c2)CC1 [Example 222, 1-[4-[[5-chloro-4-(8-fluoroimidazo[1,2-a]pyridin-3-yl)pyrimidin-2-yl]amino]-3-methoxy-phenyl]-N-methyl-piperidine-4-carboxamide] | 8.52
6 | COc1cc(O[C@@H]2CCN(C(C)=O)C2)ccc1Nc1ncc(Cl)c(-c2cnc3ccccn23)n1 [Example 10, 1-[(3R)-3-[4-[(5-chloro-4-imidazo[1,2-a]pyridin-3-yl-pyrimidin-2-yl)amino]-3-methoxy-phenoxy]pyrrolidin-1-yl]ethanone] | 7.70
7 | COc1cc(N2CCN(C(C)(C)CO)CC2)ccc1Nc1ncc(Cl)c(-c2cnn3ccccc23)n1 [Example 230, 2-[4-[4-[(5-chloro-4-pyrazolo[1,5-a]pyridin-3-yl-pyrimidin-2-yl)amino]-3-methoxy-phenyl]piperazin-1-yl]-2-methyl-propan-1-ol] | 8.30
8 | COc1cc(N2CCN(C(C)=O)CC2)ccc1Nc1ncc(F)c(-c2cnn3ccccc23)n1 [Example 170, 1-[4-[4-[(5-fluoro-4-pyrazolo[1,5-a]pyridin-3-yl-pyrimidin-2-yl)amino]-3-methoxy-phenyl]piperazin-1-yl]ethanone] | 7.17
9 | COc1cc(N2CCN(C[C@H](C)O)CC2)ccc1Nc1ncc(F)c(-c2cnc3ccccn23)n1 [Example 89, (2S)-1-[4-[4-[(5-fluoro-4-imidazo[1,2-a]pyridin-3-yl-pyrimidin-2-yl)amino]-3-methoxy-phenyl]piperazin-1-yl]propan-2-ol] | 7.47
10 | COc1cc(N2C[C@@H]3C[C@H]2CN3C(C)=O)ccc1Nc1ncc(Cl)c(-c2cnn3ccccc23)n1 [Example 241, 1-[(1S,4S)-2-[4-[(5-chloro-4-pyrazolo[1,5-a]pyridin-3-yl-pyrimidin-2-yl)amino]-3-methoxy-phenyl]-2,5-diazabicyclo[2.2.1]heptan-5-yl]ethanone] | 7.44
11 | COc1ccc(N2CCCC2)cc1Nc1ncc(Cl)c(-c2cnc3ccccn23)n1 [Example 3.8, 5-chloro-4-imidazo[1,2-a]pyridin-3-yl-N-(2-methoxy-5-pyrrolidin-1-yl-phenyl)pyrimidin-2-amine] | 6.51
12 | COc1cc(OC2CN(C(=O)[C@@H](C)OC)C2)ccc1Nc1ncc(Cl)c(-c2cnc3ccccn23)n1 [Example 27.4, (2R)-1-[3-[4-[(5-chloro-4-imidazo[1,2-a]pyridin-3-yl-pyrimidin-2-yl)amino]-3-methoxy-phenoxy]azetidin-1-yl]-2-methoxy-propan-1-one] | 7.62
13 | COc1cc(CN2CCN(C)CC2)ccc1Nc1ncc(Cl)c(-c2cnc3ccccn23)n1 [Example 21.4, 5-chloro-4-imidazo[1,2-a]pyridin-3-yl-N-[2-methoxy-4-[(4-methylpiperazin-1-yl)methyl]phenyl]pyrimidin-2-amine] | 7.52
14 | COc1cc(N2CCN(C(=O)[C@@H](C)N)CC2)ccc1Nc1ncc(Cl)c(-c2cnc3c(F)cc(F)cn23)n1 [Example 253, (2R)-2-amino-1-[4-[4-[[5-chloro-4-(6,8-difluoroimidazo[1,2-a]pyridin-3-yl)pyrimidin-2-yl]amino]-3-methoxy-phenyl]piperazin-1-yl]propan-1-one] | 8.40

Results, then the compound that gave them:

Row | pIC50 | SMILES
15 | 7.64 | COc1cc(N2CC3CN(CCO)CC(C2)O3)ccc1Nc1ncc(C)c(-c2cnc3ccccn23)n1 [Example 232, 2-[7-[4-[(4-imidazo[1,2-a]pyridin-3-yl-5-methyl-pyrimidin-2-yl)amino]-3-methoxy-phenyl]-9-oxa-3,7-diazabicyclo[3.3.1]nonan-3-yl]ethanol]
16 | 8.10 | COc1cc(N2CCN(C(C)=O)C(C)C2)ccc1Nc1ncc(Cl)c(-c2cnc3ccccn23)n1 (stereo not shown) [Example 3.36, 1-[4-[4-[(5-chloro-4-imidazo[1,2-a]pyridin-3-yl-pyrimidin-2-yl)amino]-3-methoxy-phenyl]-2-methyl-piperazin-1-yl]ethanone]
17 | 7.16 | COc1cc(N2CC[C@@H](N(C)C)C2)ccc1Nc1ncc(Cl)c(-c2cnc3ccccn23)n1 [Example 3.11, 5-chloro-N-[4-[(3R)-3-dimethylaminopyrrolidin-1-yl]-2-methoxy-phenyl]-4-imidazo[1,2-a]pyridin-3-yl-pyrimidin-2-amine]
18 | 7.72 | COc1cc(N2CCN(C(C)=O)CC2)cc(F)c1Nc1ncc(Cl)c(-c2cnc3ccccn23)n1 [Example 3.26, 1-[4-[4-[(5-chloro-4-imidazo[1,2-a]pyridin-3-yl-pyrimidin-2-yl)amino]-3-fluoro-5-methoxy-phenyl]piperazin-1-yl]ethanone]
19 | 7.72 | COc1cc(N2CC3CN(C(=O)CN(C)C)CC(C2)O3)ccc1Nc1ncc(Cl)c(-c2cnc3c(F)cccn23)n1 [Example 211, 1-[3-[4-[[5-chloro-4-(8-fluoroimidazo[1,2-a]pyridin-3-yl)pyrimidin-2-yl]amino]-3-methoxy-phenyl]-9-oxa-3,7-diazabicyclo[3.3.1]nonan-7-yl]-2-(dimethylamino)ethanone]
20 | 8.52 | COc1cc(N2CCN(C(=O)CO)CC2)ccc1Nc1ncc(Cl)c(-c2cnn3ccccc23)n1 [Example 130, 1-[4-[4-[(5-chloro-4-pyrazolo[1,5-a]pyridin-3-yl-pyrimidin-2-yl)amino]-3-methoxy-phenyl]piperazin-1-yl]-2-hydroxy-ethanone]
21 | 7.85 | COc1cc(C2CCN(C(=O)[C@H](C)O)CC2)ccc1Nc1ncc(Cl)c(-c2cnc3ccccn23)n1 [Example 28.4, (2S)-1-[4-[4-[(5-chloro-4-imidazo[1,2-a]pyridin-3-yl-pyrimidin-2-yl)amino]-3-methoxy-phenyl]-1-piperidyl]-2-hydroxy-propan-1-one]
22 | 8.22 | COc1cc(N(CCO)CCO)ccc1Nc1ncc(Cl)c(-c2cnc3c(F)cccn23)n1 [Example 223, 2-[4-[[5-chloro-4-(8-fluoroimidazo[1,2-a]pyridin-3-yl)pyrimidin-2-yl]amino]-N-(2-hydroxyethyl)-3-methoxy-anilino]ethanol]
23 | 8.40 | COc1cc(N2CCN(C(C)(C)CO)CC2)ccc1Nc1ncc(Cl)c(-c2cnc3ccc(F)cn23)n1 [Example 259, 2-[4-[4-[[5-chloro-4-(6-fluoroimidazo[1,2-a]pyridin-3-yl)pyrimidin-2-yl]amino]-3-methoxy-phenyl]piperazin-1-yl]-2-methyl-propan-1-ol]
24 | 7.72 | COc1cc(C(=O)N2CCN(CCO)CC2)ccc1Nc1ncc(Cl)c(-c2cnc3ccccn23)n1 [Example 32, [4-[(5-chloro-4-imidazo[1,2-a]pyridin-3-yl-pyrimidin-2-yl)amino]-3-methoxy-phenyl]-[4-(2-hydroxyethyl)piperazin-1-yl]methanone]
25 | 7.82 | COc1cc(N2CCN(C(C)=O)CC2)ccc1Nc1ncc(C)c(-c2cnn3ccccc23)n1 [Example 158, 1-[4-[3-methoxy-4-[(5-methyl-4-pyrazolo[1,5-a]pyridin-3-yl-pyrimidin-2-yl)amino]phenyl]piperazin-1-yl]ethanone]
26 | 7.57 | COc1cc(N2CCNCC2)ccc1Nc1ncc(OC)c(-c2cnc3ccccn23)n1 [Example 93, 4-imidazo[1,2-a]pyridin-3-yl-5-methoxy-N-(2-methoxy-4-piperazin-1-yl-phenyl)pyrimidin-2-amine]
27 | 8.15 | COc1cc(N2CCN(C(=O)[C@@H](N)CC(N)=O)CC2)ccc1Nc1ncc(Cl)c(-c2cnc3ccccn23)n1 [Example 24.8, (3S)-3-amino-4-[4-[4-[(5-chloro-4-imidazo[1,2-a]pyridin-3-yl-pyrimidin-2-yl)amino]-3-methoxy-phenyl]piperazin-1-yl]-4-oxo-butanamide]
28 | 7.89 | COc1cc(N2CCN(C(=O)[C@@H](C)N)CC2)ccc1Nc1ncc(C)c(-c2cnn3ccccc23)n1 [Example 235, (2R)-2-amino-1-[4-[3-methoxy-4-[(5-methyl-4-pyrazolo[1,5-a]pyridin-3-yl-pyrimidin-2-yl)amino]phenyl]piperazin-1-yl]propan-1-one]
29 | 7.39 | COc1ccc(N2CC[C@H](O)C2)cc1Nc1ncc(Cl)c(-c2cnc3ccccn23)n1 [Example 3.5, (3S)-1-[3-[(5-chloro-4-imidazo[1,2-a]pyridin-3-yl-pyrimidin-2-yl)amino]-4-methoxy-phenyl]pyrrolidin-3-ol]
30 | 7.51 | COc1cc(OC2CN(C(=O)[C@H](C)O)C2)ccc1Nc1ncc(Cl)c(-c2cnc3ccccn23)n1 [Example 27.1, (2S)-1-[3-[4-[(5-chloro-4-imidazo[1,2-a]pyridin-3-yl-pyrimidin-2-yl)amino]-3-methoxy-phenoxy]azetidin-1-yl]-2-hydroxy-propan-1-one]
31 | 8.52 | CNCC(=O)N1CCN(c2ccc(Nc3ncc(Cl)c(-c4cnn5ccccc45)n3)c(OC)c2)CC1 [Example 133, 1-[4-[4-[(5-chloro-4-pyrazolo[1,5-a]pyridin-3-yl-pyrimidin-2-yl)amino]-3-methoxy-phenyl]piperazin-1-yl]-2-methylamino-ethanone]

— patent publication US20100105655A1, “NOVEL COMPOUNDS 515” (ASTRAZENECA AB, priority 2008, published 2010)
